Results from US10214507B2, “Carbazole-containing amides, carbamates, and ureas as cryptochrome modulators” (Reset Therapeutics, Inc., priority 2014, dated 2019).

Experiments:
[1] = tested on: stable U20S reporter cells harboring Per2-dLuc; experiment: Per2 assay for evaluating the potency of test compounds (circadian luciferase reporter); format: cell-based; settings: amplitude of Per2-dLuc luminescence vs log concentration
Outline: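 U2OS Per2-dLuc cells grown 48 h at 37 °C, then synchronized with 5 μM forskolin plus 1 mM luciferin and dosed with 3-fold compound dilutions.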

[2] = tested on: core clock gene mRNAs in livers of ICR mice; experiment: Four day study, liver clock gene mRNA by RT-qPCR, ICR mice; format: in vivo, mouse; settings: 50 mg/kg PO BID 4 days; for liver Per2 expression: ICR mice, ZT6
Description: Male ICR mice (weighing 30-35 g), obtained from Charles River Laboratories (Hollister, CA), were used for the experiment following at least 3 days of acclimation. Mice were dosed with vehicle (WFI or 10% Kolliphor) or compound (50 mg/kg, dose volume 5 mL/kg, PO) for 4 days BID (twice a day), beginning in the afternoon of the first day. The last dose of compound or vehicle was administered on the morning of harvest. On the day of harvest (6 hours following the final dose), mice were euthanized by CO2 asphyxiation and 50 mg of liver tissue was excised and placed in a tube containing 500 μl of RNA later.
E.Z.N.A.® HP Total RNA Isolation Kits (R6812-01 and the protocol described in the Manual, Revised 2010) were utilized to prepare and isolate RNA from the liver samples. To prepare the RNA samples, 10-30 mg of sample was removed from RNA-Later and placed in a 1.5 ml microfuge tube. GTC lysis buffer (700 μl) was added to the tissue, which was homogenized with a rotor-stator homogenizer (e.g. Tissue-Tearor, Model #985370 BioSpec Products with 4.5 mm probe, Cat. #985370-04), and then centrifuged at full speed (>13,000×g) for 5 minutes. The cleared supernatant was transferred by pipetting to a DNA Clearance Column Pre-inserted in a 2 mL Collection Tube. The assembled column was centrifuged at 13,000×g for 1 minute, and the flow-through was saved. An equal volume (700 μl) of 70% ethanol was added to the lysate and mixed. The sample was then applied to a HiBind RNA spin column placed into a 2 ml collection tube, which was centrifuged at 10,000×g for 60 seconds at room temperature. RNA Wash Buffer I (250 μl) was added by pipetting directly onto a new HiBind RNA column inserted in a 2 ml collection tube. The assembled column was centrifuged at 10,000×g for 60 seconds. The RNA column was placed into a new 2 ml collection tube. DNase I stock solution is pipetted (75 μl) directly onto the surface of the HiBind RNA resin in each column (Using DNAse Digestion with RNase Free DNase Set (E1091): for each HiBind RNA column, the DNase I stock solution was prepared as followed: E.Z.N.A.® DNase I Digestion Buffer 73.5μl, RNase Free DNase I (20 Kunitz/μl) 1.5 μl=Total Volume 75 μl.). The column with bound RNA was incubated at room temperature (25-30° C.) for 15 minutes. RNA Wash Buffer I (500 μl) was added to the column and placed on a bench top for 2 minutes. After centrifuging at 10,000×g for 60 seconds, discarding the flow-through, 500 μl of RNA Wash Buffer II was added and centrifuged at 10,000×g for 60 seconds. Another 500 μl of RNA Wash Buffer II was added and the column assembly was centrifuged at 10,000×g for 60 seconds. The column was centrifuged for 2 minutes at maximum speed to completely dry the HiBind matrix. The column was placed in a clean 1.5 ml microcentrifuge tube and 40-70 μl of molecular biology grade water is added. After sitting for 1 minute, the column was centrifuged for 2 minutes at maximum speed to elute the RNA. The isolated RNA was collected into the collection tube.
RediPlate 96 RiboGreen RNA Quantification Kit (Invitrogen) RediPlate standard curve was prepared by transferring 20 μl reconstituted RNA standard to a RediPlate well reconstituted in 180 μl RediPlate TE buffer. For liver RNAs prepared from 30-100 mg of tissue using a kit similar to the Omega Bio-Tek HP Total RNA Kit and eluted in RNAse-free water in a volume of 50 μl (microliters), 5 μl of the total RNA is diluted in 195 μl of RediPlate TE buffer (1:40 dilution of RNA), mix. After transferring 5 μl to RediPlate well reconstituted in 195 μl TE buffer and incubating 10 min. at RT, Fluorescence Intensity of wells with standards and samples were read in a Tecan M200 with Excitation set at 480 nm and Emission set at 520 nm with the gain set to −70%. Alternatively, one can use the FlexStation 3 with Ex 488 nm and Em 525 nm and a Cutoff of 515 nm.

Compound | EC50 [1] [nM] | other results
O=C1C2CCC(C2)N1CC(O)Cn1c2ccc(F)cc2c2cc(F)ccc21 (stereo not shown) [Compound 48, 2-(3-(3,6-difluoro-9H-carbazol-9-yl)-2-hydroxypropyl)-2-azabicyclo[2.2.1]heptan-3-one] | 120 | Cry2 transcripts ([2]; ICR mice liver): decrease; increase in Bmal1 mRNA at ZT6 ([2]; ICR mice liver): 8 fold; liver Per2 expression [2]: suppression
COC1CCCN(CC(O)Cn2c3ccc(F)cc3c3cc(F)ccc32)C1=O (stereo not shown) [Compound 57, 1-(3-(3,6-difluoro-9H-carbazol-9-yl)-2-hydroxypropyl)-3-methoxypiperidin-2-one] | 329 | increase in Bmal1 mRNA at ZT6 ([2]; ICR mice liver): ≥ 2 fold; liver Per2 expression [2]: suppression
CC1CCCN(CC(O)Cn2c3ccc(F)cc3c3cc(F)ccc32)C1=O (stereo not shown) [Compound 27, 1-(3-(3,6-difluoro-9H-carbazol-9-yl)-2-hydroxypropyl)-3-methylpiperidin-2-one] | 478 | 
O=C1C(C2CCC2)CCCN1CC(O)Cn1c2ccc(F)cc2c2cc(F)ccc21 (stereo not shown) [Compound 51, 3-cyclobutyl-1-(3-(3,6-difluoro-9H-carbazol-9-yl)-2-hydroxypropyl)piperidin-2-one] | 265 | 
O=C1CCCN1CC(O)Cn1c2ccc(F)cc2c2cc(F)ccc21 (stereo not shown) [Compound 7, 1-(3-(3,6-difluoro-9H-carbazol-9-yl)-2-hydroxypropyl)pyrrolidin-2-one] | 625 | 
CC1CCN(CC(O)Cn2c3ccc(F)cc3c3cc(F)ccc32)C(=O)C1 (stereo not shown) [Compound 49, 1-(3-(3,6-difluoro-9H-carbazol-9-yl)-2-hydroxypropyl)-4-methylpiperidin-2-one] | 137 | 
CCN1CCCN(CC(C)(O)Cn2c3ccc(F)cc3c3cc(F)ccc32)C1=O (stereo not shown) [Compound 87, 1-(3-(3,6-difluoro-9H-carbazol-9-yl)-2-hydroxy-2-methylpropyl)-3-ethyltetrahydropyrimidin-2(1H)-one] | 317 | 
O=C1N(CC(O)Cn2c3ccc(F)cc3c3cc(F)ccc32)CCN1C1CCCC1 (stereo not shown) [Compound 91, 1-cyclopentyl-3-(3-(3,6-difluoro-9H-carbazol-9-yl)-2-hydroxypropyl)imidazolidin-2-one] | 621 | 
O=C1N(CC(O)Cn2c3ccccc3c3ccccc32)CCN1C1CCC1 (stereo not shown) [Compound 96, 1-(3-(9H-carbazol-9-yl)-2-hydroxypropyl)-3-cyclobutylimidazolidin-2-one] | 493 | 
CC1(C)CC(=O)N(CC(O)Cn2c3ccc(F)cc3c3cc(F)ccc32)C1 (stereo not shown) [Compound 31, 1-(3-(3,6-difluoro-9H-carbazol-9-yl)-2-hydroxypropyl)-4,4-dimethylpyrrolidin-2-one] | 832 | 
CC(O)(CN1CCC(c2ccccc2)C1=O)Cn1c2ccc(F)cc2c2cc(F)ccc21 (stereo not shown) [Compound 54, 1-(3-(3,6-difluoro-9H-carbazol-9-yl)-2-hydroxy-2-methylpropyl)-3-phenylpyrrolidin-2-one] | 808 | 
CCC1CC(=O)N(CC(C)(O)Cn2c3ccc(F)cc3c3cc(F)ccc32)C1 (stereo not shown) [Compound 46, 1-(3-(3,6-difluoro-9H-carbazol-9-yl)-2-hydroxy-2-methylpropyl)-4-ethylpyrrolidin-2-one] | 618 | 
O=C1C(C2CCCCC2)CCCN1CC(O)Cn1c2ccc(F)cc2c2cc(F)ccc21 (stereo not shown) [Compound 20, 3-cyclohexyl-1-(3-(3,6-difluoro-9H-carbazol-9-yl)-2-hydroxypropyl)piperidin-2-one] | 379 | 
CC(O)(CN1CCCC(C2CCCCC2)C1=O)Cn1c2ccc(F)cc2c2cc(F)ccc21 (stereo not shown) [Compound 21, 3-cyclohexyl-1-(3-(3,6-difluoro-9H-carbazol-9-yl)-2-hydroxy-2-methylpropyl)piperidin-2-one] | 1040 | 
O=C1N(CC(O)Cn2c3ccc(F)cc3c3cc(F)ccc32)CCN1C1CC1 (stereo not shown) [Compound 92, 1-cyclopropyl-3-(3-(3,6-difluoro-9H-carbazol-9-yl)-2-hydroxypropyl)imidazolidin-2-one] | 527 | 
O=C1[C@@H]2CC[C@@H](C2)N1C[C@H](O)Cn1c2ccccc2c2ccccc21 [Compound 106, (1S,4R)-2-((R)-3-(9H-carbazol-9-yl)-2-hydroxypropyl)-2-azabicyclo[2.2.1]heptan-3-one] | 220 | 
CC(O)(CN1CCCN(C2CCC2)C1=O)Cn1c2ccc(F)cc2c2cc(F)ccc21 (stereo not shown) [Compound 81, 1-cyclobutyl-3-(3-(3,6-difluoro-9H-carbazol-9-yl)-2-hydroxy-2-methylpropyl)tetrahydropyrimidin-2(1H)-one] | 816 | 
O=C1N(CC(O)Cn2c3ccc(F)cc3c3cc(F)ccc32)CCCC1(F)F (stereo not shown) [Compound 13, 1-(3-(3,6-difluoro-9H-carbazol-9-yl)-2-hydroxypropyl)-3,3-difluoropiperidin-2-one] | 288 | 
CC1(C)CCN(CC(O)Cn2c3ccc(F)cc3c3cc(F)ccc32)C1=O (stereo not shown) [Compound 15, 1-(3-(3,6-difluoro-9H-carbazol-9-yl)-2-hydroxypropyl)-3,3-dimethylpyrrolidin-2-one] | 164 | 
O=C1CCCCN1CC(O)Cn1c2ccc(F)cc2c2cc(F)ccc21 (stereo not shown) [Compound 4, 1-(3-(3,6-difluoro-9H-carbazol-9-yl)-2-hydroxypropyl)piperidin-2-one] | 192 | 
C[C@H]1CCC(=O)N1C[C@H](O)Cn1c2ccccc2c2ccccc21 [Compound 112, (S)-1-((R)-3-(9H-carbazol-9-yl)-2-hydroxypropyl)-5-methylpyrrolidin-2-one] | 470 | 
C[C@](O)(CN1CC[C@H](F)C1=O)Cn1c2ccccc2c2ccccc21 [Compound 128, (S)-1-((R)-3-(9H-carbazol-9-yl)-2-hydroxy-2-methylpropyl)-3-fluoropyrrolidin-2-one] | 172 | 
CC1CCCC(=O)N1CC(O)Cn1c2ccc(F)cc2c2cc(F)ccc21 (stereo not shown) [Compound 39, 1-(3-(3,6-difluoro-9H-carbazol-9-yl)-2-hydroxypropyl)-6-methylpiperidin-2-one] | 342 | 
C[C@H]1CCC(=O)N1C[C@H](O)Cn1c2ccc(F)cc2c2cc(F)ccc21 [Compound 110, (S)-1-((R)-3-(3,6-difluoro-9H-carbazol-9-yl)-2-hydroxypropyl)-5-methylpyrrolidin-2-one] | 830 | 
C[C@H]1CCC(=O)N(C[C@@H](O)Cn2c3ccccc3c3ccccc32)C1 [Compound 132, (S)-1-((S)-3-(9H-carbazol-9-yl)-2-hydroxypropyl)-5-methylpiperidin-2-one] | 1130 | 
CC(O)(CN1CCCC(F)(F)C1=O)Cn1c2ccc(F)cc2c2cc(F)ccc21 (stereo not shown) [Compound 14, 1-(3-(3,6-difluoro-9H-carbazol-9-yl)-2-hydroxy-2-methylpropyl)-3,3-difluoropiperidin-2-one] | 541 | 
